Each structure is given as a SMILES string. Like-named read-outs stand apart in the source and are kept apart here.

Assay [1] concerns the target T1, IKZF1 ZNF2_ZNF3 Q1F degron-tagged CD19 CAR (Homo sapiens, UniProt Q13422, Q146F).
T1 construct: ZNF2_ZNF3 Q1F degron (GERPFFCNQCGASFTQKGNLLRHIKLHSGEKPFKCHLCNYACRRRDALTGHLRTHS); fused on or other part: anti-CD19 scFv, CD28 transmembrane domain, 4-1BB costimulatory domain, CD3 zeta signaling domain (the CAR that carries the degron), and Nluc
Description: Degradation of Q1F degron-tagged CD19 CAR in Jurkat cells (flow cytometry of CAR levels). Format: cell-based. The text has this:
Q1F degron-targeting compounds were screened in Jurkat cells engineered to express a IKZF1 ZNF2_ZNF3 Q1F. The cell line was generated with lentiviral vectors containing CD19 CARs tagged with IKZF1 ZNF2_ZNF3 QIF Nluc, which were transduced into Jurkat cells. The CD19 CAR comprised an anti-CD19 scFv, a CD28 transmembrane domain, a 4-1BB costimulatory domain, a CD3ζ signaling domain, and a ZNF2_ZNF3 Q1F degron (GERPFFCNQCGASFTQKGNLLRHIKLHSGEKPFKCHLCNYACRRRDALTGHLRTHS; SEQ ID NO: 1; Q1F substitution underlined). Transduced cells were treated with a titration of each small molecule or no drug and then incubated at 37° C. for 18 hours. Cells were washed and stained with appropriate staining reagent to measure CAR levels. The cells were incubated at 4° C. in the staining reagents for 20 mins and then washed 3 times before being read on the flow cytometer. CAR levels were normalized to cells that had not been treated with drug. EC50 and Ymin values were calculated using the resulting titration curve. This identified small molecules that potently degraded the Q1F degron-tagged CARs (Table 1).
(§1) To determine the EC50 value of a compound for the degradation of a given substrate (concentration of compound that achieves half the maximum degradation observed), a four-parameter logistic model (sigmoidal dose-response model) (FIT=(A+{(B−A)/1+[(C/x)D]})) where C is the inflection point (EC50), D is the […], and A and B are the low and high limits of the fit, respectively) was used. All substrate degradation curves were processed and evaluated using ActivityBase (IDBS), a data analysis software package. Ymax is the % protein degraded (Ymin=100−Ymax and is minimum percent protein remaining).
A general note: Flow cytometry measures light scatter and fluorescence of single cells or particles in a stream.

The next assay addresses T2, Helios (Homo sapiens, UniProt Q9UKS7).
T2 construct: endogenous in cells; host or cells: Jurkat cells, CRISPR/Cas9 knock-in of HiBit at the IKZF2 locus
Description: Helios degradation in Jurkat/Helios/HiBit cells (Nano-Glo luminescence). Format: cell-based. Particulars: 18 hr, read-out: Helios Jurkat Hibit IC50. As for the experimental part:
For Helios, a stable Jurkat cell line was engineered using CRISPR/Cas9 to insert an in-frame HiBit tag into the carboxy-terminal reading frame of the IKZF2 gene. The sequence of human Helios is shown below:
Test compounds were transferred to 1536 well plates using an acoustic dispenser, and Jurkat/Helios/HiBit cells in DMEM/10% FCS were plated at 10,000 cells/well in a final volume of 5 μL. Cells were incubated at 37 C, 95% RH for 18 hr. Luciferase activity was measured by adding 2 μL/well of Nano-Glo reagent (Promega), incubating at RT for 30 min, and reading luminescence on a microtiter plate reader.
as §1
(With HiBiT, luminescence reflects the tagged protein that the partner subunit can reach.)

Setting [2] is: Jurkat cells expressing CD19 CAR tagged with IKZF1 ZNF2_ZNF3 Q1F; 18 hours at 37° C.; CAR levels normalized to untreated cells; read-out: Q1F Jurkat IC50.
Setting [3] is: Ymax is the % protein degraded; Jurkat cells expressing Q1F degron-tagged CD19 CAR; 18 hours; read-out: Q1F Jurkat-YMax.
Setting [4] is: Jurkat, 18 h, read-out: Q1F Jurkat-YMax.

T2 sequence (Q9UKS7 whole entry): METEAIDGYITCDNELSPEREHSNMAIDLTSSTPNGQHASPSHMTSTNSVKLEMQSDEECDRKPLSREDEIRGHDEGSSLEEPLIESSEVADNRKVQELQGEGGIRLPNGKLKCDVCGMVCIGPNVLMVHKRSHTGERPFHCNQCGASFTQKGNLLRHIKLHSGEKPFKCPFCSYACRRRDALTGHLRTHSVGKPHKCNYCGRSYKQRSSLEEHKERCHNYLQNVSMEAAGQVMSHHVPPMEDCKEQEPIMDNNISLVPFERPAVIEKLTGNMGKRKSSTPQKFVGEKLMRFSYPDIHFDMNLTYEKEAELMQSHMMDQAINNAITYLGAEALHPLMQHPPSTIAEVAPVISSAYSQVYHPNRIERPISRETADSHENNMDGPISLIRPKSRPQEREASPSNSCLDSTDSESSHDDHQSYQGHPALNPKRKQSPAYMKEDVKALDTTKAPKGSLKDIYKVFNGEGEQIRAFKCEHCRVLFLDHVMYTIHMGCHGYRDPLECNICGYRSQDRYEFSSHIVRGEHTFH
T2 sequence (Q96SW2 whole entry, further chain): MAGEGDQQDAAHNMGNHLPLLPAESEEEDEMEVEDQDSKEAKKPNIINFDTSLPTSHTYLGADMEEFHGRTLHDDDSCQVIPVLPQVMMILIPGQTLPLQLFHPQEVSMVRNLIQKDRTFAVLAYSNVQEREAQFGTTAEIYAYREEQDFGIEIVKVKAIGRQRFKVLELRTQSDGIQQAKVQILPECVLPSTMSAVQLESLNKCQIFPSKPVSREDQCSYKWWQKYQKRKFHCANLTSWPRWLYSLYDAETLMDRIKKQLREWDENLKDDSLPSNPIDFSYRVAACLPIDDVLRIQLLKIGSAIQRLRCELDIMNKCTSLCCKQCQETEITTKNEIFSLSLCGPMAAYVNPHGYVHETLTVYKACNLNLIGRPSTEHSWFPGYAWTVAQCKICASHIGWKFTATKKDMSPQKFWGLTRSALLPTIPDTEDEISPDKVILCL
T2 sequence (Q16531 whole entry partner): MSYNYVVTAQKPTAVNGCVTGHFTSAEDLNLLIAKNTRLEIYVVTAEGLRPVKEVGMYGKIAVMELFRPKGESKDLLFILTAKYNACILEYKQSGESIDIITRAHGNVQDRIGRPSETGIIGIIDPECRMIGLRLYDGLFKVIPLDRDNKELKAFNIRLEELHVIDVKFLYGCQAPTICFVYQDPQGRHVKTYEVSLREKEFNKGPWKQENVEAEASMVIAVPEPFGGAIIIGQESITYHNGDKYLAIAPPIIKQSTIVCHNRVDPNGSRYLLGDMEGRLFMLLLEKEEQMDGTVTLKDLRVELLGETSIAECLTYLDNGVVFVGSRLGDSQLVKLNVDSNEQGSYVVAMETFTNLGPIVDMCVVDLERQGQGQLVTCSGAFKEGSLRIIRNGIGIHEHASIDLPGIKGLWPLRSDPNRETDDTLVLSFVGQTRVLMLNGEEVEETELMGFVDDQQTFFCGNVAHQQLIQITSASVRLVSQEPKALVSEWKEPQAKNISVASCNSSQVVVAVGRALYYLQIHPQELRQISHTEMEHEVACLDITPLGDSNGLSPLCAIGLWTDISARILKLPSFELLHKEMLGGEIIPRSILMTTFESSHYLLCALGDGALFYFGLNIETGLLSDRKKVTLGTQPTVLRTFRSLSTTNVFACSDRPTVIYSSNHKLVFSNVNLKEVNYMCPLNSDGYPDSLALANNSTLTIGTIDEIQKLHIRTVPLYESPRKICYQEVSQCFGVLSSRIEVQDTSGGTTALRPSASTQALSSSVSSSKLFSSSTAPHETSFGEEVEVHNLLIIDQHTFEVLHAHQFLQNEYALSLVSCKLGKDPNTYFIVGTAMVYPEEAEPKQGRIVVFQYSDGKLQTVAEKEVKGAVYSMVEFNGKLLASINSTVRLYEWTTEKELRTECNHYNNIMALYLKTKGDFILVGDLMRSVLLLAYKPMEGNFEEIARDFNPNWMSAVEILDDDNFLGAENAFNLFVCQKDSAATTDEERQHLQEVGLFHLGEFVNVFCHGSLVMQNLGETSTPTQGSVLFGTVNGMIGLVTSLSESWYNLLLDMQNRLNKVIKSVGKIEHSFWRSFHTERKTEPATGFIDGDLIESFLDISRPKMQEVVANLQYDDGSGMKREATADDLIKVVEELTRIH
T1 sequence (Q13422 whole entry Q146F, the tested form may be a part): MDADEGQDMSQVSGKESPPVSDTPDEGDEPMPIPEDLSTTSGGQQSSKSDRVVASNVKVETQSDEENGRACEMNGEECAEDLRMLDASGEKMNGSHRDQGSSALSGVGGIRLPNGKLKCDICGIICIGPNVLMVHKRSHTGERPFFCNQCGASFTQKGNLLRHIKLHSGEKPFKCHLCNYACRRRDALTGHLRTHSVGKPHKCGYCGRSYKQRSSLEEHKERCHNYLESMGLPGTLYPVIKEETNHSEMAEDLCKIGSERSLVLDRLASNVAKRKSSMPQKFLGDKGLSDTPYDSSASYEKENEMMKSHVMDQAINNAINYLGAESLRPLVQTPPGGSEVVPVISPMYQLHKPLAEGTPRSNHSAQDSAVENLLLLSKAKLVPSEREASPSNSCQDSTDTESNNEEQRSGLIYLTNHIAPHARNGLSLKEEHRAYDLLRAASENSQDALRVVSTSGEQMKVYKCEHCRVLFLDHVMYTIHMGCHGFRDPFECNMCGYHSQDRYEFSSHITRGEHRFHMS

In the case of `CN(CCN1CCC(O)(c2c(F)cc3c(c2F)CN(C2CCC(=O)NC2=O)C3=O)CC1)S(=O)(=O)c1ccccc1` (stereo not drawn) [Compound 40, N-[2-[4-[2-(2,6-dioxo-3-piperidyl)-4,6-difluoro-1-oxo-isoindolin-5-yl]-4-hydroxy-1-piperidyl]ethyl]-N-methyl-benzenesulfonamide], the DC50 in assay [1] (setting [2]) was 67.7 nM; at Helios it was at least 10000 nM. Further, the Dmax in assay [1] (setting [3]) came out at 60%.
Taken in the same sequence, the figures for `O=C1CCC(N2Cc3cc(C4(O)CCN(Cc5ccc6ncsc6c5)CC4)c(F)cc3C2=O)C(=O)N1` (stereo not drawn) [Compound 35, 3-(5-(1-(benzo[d]thiazol-6-ylmethyl)-4-hydroxypiperidin-4-yl)-6-fluoro-1-oxoisoindolin-2-yl) piperidine-2,6-dione] were 144 nM, at least 10000 nM and 63.3%.
As for `O=C1CCC(N2Cc3c(cc(F)c(C4(O)CCN(Cc5ccc6ccccc6n5)CC4)c3F)C2=O)C(=O)N1` (stereo not drawn) [Compound 29, 3-(4,6-difluoro-5-(4-hydroxy-1-(quinolin-2-ylmethyl)piperidin-4-yl)-1-oxoisoindolin-2-yl)piperidine-2,6-dione], the results for the DC50 (in assay [1] (setting [2]); on Helios) were 6.42 nM and at least 10000 nM, respectively. Besides, in assay [1] (setting [3]), the Dmax is 87%.
Regarding `Cc1nc(C)c(S(=O)(=O)N(C)CCN2CCC(O)(c3c(F)cc4c(c3F)CN(C3CCC(=O)NC3=O)C4=O)CC2)s1` (stereo not drawn) [Compound 39, N-[2-[4-[2-(2,6-dioxo-3-piperidyl)-4,6-difluoro-1-oxo-isoindolin-5-yl]-4-hydroxy-1-piperidyl]ethyl]-N,2,4-trimethyl-thiazole-5-sulfonamide], the Dmax in assay [1] (setting [4]) was determined as 58.9%. Besides, the DC50 is 93.8 nM in assay [1] (read-out: Q1F Jurkat IC50; Jurkat cells expressing CD19 CAR tagged with IKZF1 ZNF2_ZNF3 Q1F; 18 hours at 37° C.; CAR levels normalized to untreated cells) and at least 10000 nM on Helios.
As to `O=C1CCC(N2Cc3c(cc(F)c(C4(O)CCN(Cc5ccc(C(F)F)cc5)CC4)c3F)C2=O)C(=O)N1` (stereo not drawn) [Compound 19, 3-(5-(1-(4-(difluoromethyl)benzyl)-4-hydroxypiperidin-4-yl)-4,6-difluoro-1-oxoisoindolin-2-yl)piperidine-2,6-dione], the DC50 was 5.41 nM in assay [1] (setting [2]) and at least 10000 nM on Helios. In assay [1] (setting [3]), the Dmax was found to be 83.3%.
Regarding `O=C1CCC(N2Cc3cc(C4CCN(Cc5ccc6cn[nH]c6c5)CC4)c(F)cc3C2=O)C(=O)N1` (stereo not drawn) [Compound 87, 3-(5-(1-((1H-indazol-6-yl)methyl)piperidin-4-yl)-6-fluoro-1-oxoisoindolin-2-yl)piperidine-2,6-dione], the DC50 was 4.06 nM in assay [1] (setting [2]) and at least 10000 nM at Helios. Moreover, the Dmax in assay [1] (setting [3]) turned out to be 94.2%.
As to `O=C1CCC(N2Cc3c(cc(F)c(C4CCN(Cc5ccc(C(F)(F)F)cc5)CC4)c3F)C2=O)C(=O)N1` (stereo not drawn) [Compound 52, 3-(4,6-difluoro-1-oxo-5-(1-(4-(trifluoromethyl)benzyl)piperidin-4-yl)isoindolin-2-yl)piperidine-2,6-dione], the figures for the DC50 (in assay [1] (setting [2]); at Helios) were 0.91 nM and at least 10000 nM, respectively. In assay [1] (setting [3]), the Dmax is 91.8%.
Taken in the same sequence, the figures for `O=C1CCC(N2Cc3c(cc(F)c(C4CCN(Cc5cccc6ncsc56)CC4)c3F)C2=O)C(=O)N1` (stereo not drawn) [Compound 64, 3-(5-(1-(benzo[d]thiazol-7-ylmethyl)piperidin-4-yl)-4,6-difluoro-1-oxoisoindolin-2-yl)piperidine-2,6-dione] were 2.11 nM, at least 10000 nM and 92.9%.
Taken in the same sequence, the figures for `O=C1CCC(N2Cc3c(cc(F)c(C4C[C@H]5CC[C@@H](C4)N5Cc4ccc(C(F)F)cc4)c3F)C2=O)C(=O)N1` (stereo partly drawn) [Compound 128, 3-(5-((1R,5S)-8-(4-(difluoromethyl)benzyl)-8-azabicyclo[3.2.1]octan-3-yl)-4,6-difluoro-1-oxoisoindolin-2-yl)piperidine-2,6-dione] were 17.4 nM, at least 10000 nM and 87.2%.
Taken in the same sequence, the figures for `O=C1CCC(N2Cc3c(cc(F)c(C4CCN(CC5CCOC5)CC4)c3F)C2=O)C(=O)N1` (stereo not drawn) [Compound 7, 3-(4,6-difluoro-1-oxo-5-(1-((tetrahydrofuran-3-yl)methyl)piperidin-4-yl)isoindolin-2-yl)piperidine-2,6-dione] were 0.265 nM, at least 10000 nM and 86.2%.
In the case of `O=C1CCC(N2Cc3c(cc(F)c(C4CCN(Cc5ccc(F)cc5)CC4)c3F)C2=O)C(=O)N1` (stereo not drawn) [Compound 2, 3-(4,6-difluoro-5-(1-(4-fluorobenzyl)piperidin-4-yl)-1-oxoisoindolin-2-yl)piperidine-2,6-dione], the DC50 was 1.43 nM in assay [1] (setting [2]) and at least 10000 nM on Helios. In addition, the Dmax in assay [1] (setting [3]) was determined as 88.8%.
As to `CNc1ccc2c(n1)CN(C(=O)c1c(F)cc3c(c1F)CN(C1CCC(=O)NC1=O)C3=O)C2` (stereo not drawn) [Compound 73, 3-[4,6-difluoro-5-[2-(methylamino)-5,7-dihydropyrrolo[3,4-b]pyridine-6-carbonyl]-1-oxo-isoindolin-2-yl]piperidine-2,6-dione], the DC50 in assay [1] (setting [2]) was 3.11 nM; on Helios, at least 10000 nM. For the same molecule, the Dmax in assay [1] (setting [4]) was found to be 95.3%.
Turning to `O=C1CCC(N2Cc3c(cc(F)c(CNC(=O)C4CCC(C(F)(F)F)CC4)c3F)C2=O)C(=O)N1` (stereo not drawn) [Compound 78, N-((2-(2,6-dioxopiperidin-3-yl)-4,6-difluoro-1-oxoisoindolin-5-yl)methyl)-4-(trifluoromethyl)cyclohexane-1-carboxamide], the DC50 in assay [1] (setting [2]) is 24.5 nM; at Helios, at least 10000 nM. In assay [1] (setting [3]), the Dmax came to 61.7%.
Taken in the same sequence, the figures for `CNC(=O)CN1CCC(c2c(F)cc3c(c2F)CN(C2CCC(=O)NC2=O)C3=O)CC1` (stereo not drawn) [Compound 122, 2-(4-(2-(2,6-dioxopiperidin-3-yl)-4,6-difluoro-1-oxoisoindolin-5-yl)piperidin-1-yl)-N-methylacetamide] were 65.1 nM, at least 10000 nM and 74.2%.
The corresponding values for `COc1cccc(CN2CCC(O)(c3c(F)cc4c(c3F)CN(C3CCC(=O)NC3=O)C4=O)CC2)c1` (stereo not drawn) [Compound 36, 3-(4,6-difluoro-5-(4-hydroxy-1-(3-methoxybenzyl)piperidin-4-yl)-1-oxoisoindolin-2-yl)piperidine-2,6-dione] are 3.77 nM, at least 10000 nM and 77.7%.
The corresponding values for `CN1CCC(N2CCC(c3c(F)cc4c(c3F)CN(C3CCC(=O)NC3=O)C4=O)CC2)CC1` (stereo not drawn) [Compound 125, 3-(4,6-difluoro-5-(1′-methyl-[1,4′-bipiperidin]-4-yl)-1-oxoisoindolin-2-yl)piperidine-2,6-dione] are 22.1 nM, at least 10000 nM and 80.1%.
As for `Cc1ccc(CN2CCC(O)(c3c(F)cc4c(c3F)CN(C3CCC(=O)NC3=O)C4=O)CC2)cc1C` (stereo not drawn) [Compound 43, 3-[5-[1-[(3,4-dimethylphenyl)methyl]-4-hydroxy-4-piperidyl]-4,6-difluoro-1-oxo-isoindolin-2-yl]piperidine-2,6-dione], the figures for the DC50 (in assay [1] (setting [2]); at Helios) were 2.75 nM and at least 10000 nM, respectively. Further, the Dmax in assay [1] (setting [3]) was found to be 80.2%.
Take `O=C1CCC(N2Cc3c(cc(F)c(C4CCN(Cc5cccc(-n6cccn6)c5)CC4)c3F)C2=O)C(=O)N1` (stereo not drawn) [Compound 49, 3-(5-(1-(3-(1H-pyrazol-1-yl)benzyl)piperidin-4-yl)-4,6-difluoro-1-oxoisoindolin-2-yl)piperidine-2,6-dione]: the DC50 was 0.108 nM in assay [1] (setting [2]) and at least 10000 nM at Helios. In addition, the Dmax in assay [1] (setting [3]) came to 91%.
The corresponding values for `O=C1CCC(N2Cc3c(cc(F)c(C4(O)CCN(Cc5ccc(C(F)(F)F)cc5Br)CC4)c3F)C2=O)C(=O)N1` (stereo not drawn) [Compound 31, 3-(5-(1-(2-bromo-4-(trifluoromethyl)benzyl)-4-hydroxypiperidin-4-yl)-4,6-difluoro-1-oxoisoindolin-2-yl)piperidine-2,6-dione] are 14 nM, at least 10000 nM and 82.8%.

Source of the values: patent publication US20240327381A1, “Compounds and Compositions for Selective Degradation of Engineered Proteins” (Celgene Corporation, priority 2023, published 2024).
